Experimental data published in PubChem BioAssay (NCI).
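Five concentrations, 48 hours, 96-well plates. TGI marks complete inhibition of growth.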

What was measured:
Experiment in all cases: DTP human tumour cell line panel, 48 h
[1] = tested on: MOLT-4 leukemia
[2] = tested on: 786-0 renal
[3] = tested on: KM20L2 colon
[4] = tested on: HT29 colon
[5] = tested on: SNB-19 CNS
[6] = tested on: RXF 393 renal
[7] = tested on: SN12C renal
[8] = tested on: EKVX NSCLC
[9] = tested on: M19-MEL melanoma
[10] = tested on: SK-MEL-2 melanoma
[11] = tested on: CAKI-1 renal
[12] = tested on: HOP-18 NSCLC
[13] = tested on: RXF-631 renal
[14] = tested on: A498 renal
[15] = tested on: K-562 leukemia
[16] = tested on: HCT-116 colon
[17] = tested on: OVCAR-4 ovarian
[18] = tested on: CCRF-CEM leukemia
[19] = tested on: M14 melanoma
[20] = tested on: HOP-62 NSCLC
[21] = tested on: OVCAR-5 ovarian
[22] = tested on: UACC-62 melanoma
[23] = tested on: SR leukemia
[24] = tested on: LXFL 529 NSCLC
[25] = tested on: DMS 273 small cell lung
[26] = tested on: OVCAR-3 ovarian
[27] = tested on: TK-10 renal
[28] = tested on: MALME-3M melanoma
[29] = tested on: HL-60(TB) leukemia
[30] = tested on: NCI-H23 lung
[31] = tested on: A549 NSCLC
[32] = tested on: DMS 114 small cell lung
[33] = tested on: UO-31 renal
[34] = tested on: SK-MEL-5 melanoma
[35] = tested on: OVCAR-8 ovarian
[36] = tested on: SNB-75 CNS
[37] = tested on: LOX IMVI melanoma
[38] = tested on: RPMI-8226 leukemia
[39] = tested on: SF-539 CNS
[40] = tested on: HCT-15 colon
[41] = tested on: ACHN renal
[42] = tested on: SK-OV-3 ovarian
[43] = tested on: HOP-92 NSCLC
[44] = tested on: IGROV1 ovarian
[45] = tested on: SF-295 CNS
[46] = tested on: SNB-78 CNS
[47] = tested on: UACC-257 melanoma
[48] = tested on: HCC-2998 colon
[49] = tested on: COLO 205 colon
[50] = tested on: U251 CNS
[51] = tested on: NCI-H522 lung
[52] = tested on: KM12 colon
[53] = tested on: SK-MEL-28 melanoma
[54] = tested on: SW-620 colon
[55] = tested on: NCI-H460 lung
[56] = tested on: DLD-1 colon
[57] = tested on: SF-268 CNS
[58] = tested on: XF 498 CNS
[59] = tested on: NCI-H226 lung

With `CCOC(=O)N1C/C(=C\c2ccc(N(C)C)cc2)C(=O)/C(=C/c2ccc(N(C)C)cc2)C1` the TGI [1] was greater than 100 µM, the TGI [2] was greater than 100 µM and the TGI [3] was greater than 100 µM. The TGI [4] was greater than 100 µM, the TGI [5] was greater than 100 µM and the TGI [6] was greater than 100 µM. The TGI [7] was greater than 100 µM, the TGI [8] was greater than 100 µM and the TGI [9] was greater than 100 µM. For the same compound, the TGI [10] was greater than 100 µM, the TGI [11] was greater than 100 µM and the TGI [12] was greater than 100 µM. For the same compound, the TGI [13] was greater than 100 µM, the TGI [14] was greater than 100 µM and the TGI [15] was greater than 100 µM. The TGI [16] was greater than 100 µM, the TGI [17] was greater than 100 µM and the TGI [18] was greater than 100 µM. For the same compound, the TGI [19] was greater than 100 µM, the TGI [20] was greater than 100 µM and the TGI [21] was greater than 100 µM. For the same compound, the TGI [22] was greater than 100 µM, the TGI [23] was greater than 100 µM and the TGI [24] was greater than 100 µM. The TGI [25] was greater than 100 µM, the TGI [26] was greater than 100 µM and the TGI [27] was greater than 100 µM. The TGI [28] was greater than 100 µM, the TGI [29] was greater than 100 µM and the TGI [30] was greater than 100 µM. It also gave a TGI [31] greater than 100 µM, a TGI [32] greater than 100 µM and a TGI [33] greater than 100 µM. It also gave a TGI [34] greater than 100 µM, a TGI [35] greater than 100 µM and a TGI [36] greater than 100 µM. It also gave a TGI [37] greater than 100 µM, a TGI [38] greater than 100 µM and a TGI [39] greater than 100 µM. The TGI [40] was greater than 100 µM, the TGI [41] was greater than 100 µM and the TGI [42] was greater than 100 µM. It also gave a TGI [43] greater than 100 µM, a TGI [44] greater than 100 µM and a TGI [45] greater than 100 µM. The TGI [46] was greater than 100 µM, the TGI [47] was greater than 100 µM and the TGI [48] was greater than 100 µM. For the same compound, the TGI [49] was greater than 100 µM, the TGI [50] was greater than 100 µM and the TGI [51] was greater than 100 µM. It also gave a TGI [52] greater than 100 µM, a TGI [53] greater than 100 µM and a TGI [54] greater than 100 µM. It also gave a TGI [55] greater than 100 µM, a TGI [56] greater than 100 µM and a TGI [57] greater than 100 µM.
Work on `O=C(OCc1ccccc1)N1N=NC2C3CC(OCc4ccccc4)(OCc4ccccc4)C(O3)C21` (stereo unspecified) yielded a TGI [1] of 60.7 µM, a TGI [2] greater than 100 µM and a TGI [3] greater than 100 µM. The TGI [58] was 53.4 µM, the TGI [4] was greater than 100 µM and the TGI [6] was 35.6 µM. The TGI [7] was greater than 100 µM, the TGI [9] was 77.6 µM and the TGI [10] was 33 µM. For the same compound, the TGI [11] was greater than 100 µM, the TGI [12] was 94 µM and the TGI [13] was greater than 100 µM. It also gave a TGI [14] greater than 100 µM, a TGI [15] of 73.6 µM and a TGI [17] greater than 100 µM. The TGI [18] was greater than 100 µM, the TGI [59] was 41.8 µM and the TGI [19] was greater than 100 µM. It also gave a TGI [20] greater than 100 µM, a TGI [21] of 70.4 µM and a TGI [22] of 61.4 µM. It also gave a TGI [24] greater than 100 µM, a TGI [25] of 94.9 µM and a TGI [26] of 59.6 µM. It also gave a TGI [28] of 43.1 µM, a TGI [29] of 32.6 µM and a TGI [30] of 38.9 µM. It also gave a TGI [31] greater than 100 µM, a TGI [32] of 53.1 µM and a TGI [33] of 28.4 µM. For the same compound, the TGI [36] was 82.4 µM, the TGI [37] was 42.8 µM and the TGI [38] was greater than 100 µM. The TGI [39] was greater than 100 µM, the TGI [40] was greater than 100 µM and the TGI [41] was greater than 100 µM. For the same compound, the TGI [42] was greater than 100 µM, the TGI [43] was 43.9 µM and the TGI [44] was greater than 100 µM. For the same compound, the TGI [45] was greater than 100 µM, the TGI [46] was greater than 100 µM and the TGI [47] was 41.4 µM. The TGI [48] was 83.2 µM, the TGI [49] was 63 µM and the TGI [50] was greater than 100 µM. The TGI [52] was greater than 100 µM, the TGI [53] was 55.1 µM and the TGI [54] was 80.5 µM. The TGI [55] was greater than 100 µM, the TGI [56] was greater than 100 µM and the TGI [57] was 87.7 µM.
Compound `Cc1ccccc1-c1cc(=O)c2cc(C)c(C)c(C(=O)O)c2o1` has a TGI [1] greater than 100 µM, a TGI [2] greater than 100 µM and a TGI [3] greater than 100 µM. The TGI [58] was greater than 100 µM, the TGI [4] was greater than 100 µM and the TGI [5] was greater than 100 µM. The TGI [7] was greater than 100 µM, the TGI [8] was greater than 100 µM and the TGI [9] was greater than 100 µM. The TGI [10] was greater than 100 µM, the TGI [11] was greater than 100 µM and the TGI [12] was greater than 100 µM. The TGI [13] was greater than 100 µM, the TGI [15] was greater than 100 µM and the TGI [16] was greater than 100 µM. For the same compound, the TGI [17] was greater than 100 µM, the TGI [18] was greater than 100 µM and the TGI [59] was greater than 100 µM. For the same compound, the TGI [19] was greater than 100 µM, the TGI [20] was greater than 100 µM and the TGI [21] was greater than 100 µM. The TGI [22] was greater than 100 µM, the TGI [23] was greater than 100 µM and the TGI [24] was greater than 100 µM. It also gave a TGI [25] greater than 100 µM, a TGI [26] greater than 100 µM and a TGI [27] greater than 100 µM. It also gave a TGI [28] greater than 100 µM, a TGI [29] greater than 100 µM and a TGI [30] greater than 100 µM. For the same compound, the TGI [31] was greater than 100 µM, the TGI [32] was greater than 100 µM and the TGI [33] was greater than 100 µM. For the same compound, the TGI [34] was greater than 100 µM, the TGI [35] was greater than 100 µM and the TGI [36] was greater than 100 µM. For the same compound, the TGI [37] was greater than 100 µM, the TGI [38] was greater than 100 µM and the TGI [39] was greater than 100 µM. For the same compound, the TGI [40] was greater than 100 µM, the TGI [41] was greater than 100 µM and the TGI [42] was greater than 100 µM. The TGI [43] was greater than 100 µM, the TGI [44] was greater than 100 µM and the TGI [45] was greater than 100 µM. For the same compound, the TGI [46] was greater than 100 µM, the TGI [47] was greater than 100 µM and the TGI [48] was greater than 100 µM. The TGI [49] was greater than 100 µM, the TGI [50] was greater than 100 µM and the TGI [51] was greater than 100 µM. The TGI [52] was greater than 100 µM, the TGI [53] was greater than 100 µM and the TGI [54] was greater than 100 µM. The TGI [55] was greater than 100 µM and the TGI [56] was greater than 100 µM.
`CC1Nc2ccccc2NC1C=C(C#N)C#N` (stereo unspecified) showed a TGI [1] of 24.6 µM, a TGI [2] of 29.6 µM and a TGI [3] of 31 µM. It also gave a TGI [58] of 31.1 µM, a TGI [4] of 36.9 µM and a TGI [5] of 36.3 µM. The TGI [6] was 31.3 µM, the TGI [7] was 30.1 µM and the TGI [8] was 37.1 µM. The TGI [9] was 30.5 µM, the TGI [10] was 37.7 µM and the TGI [11] was 28.9 µM. The TGI [12] was 40.1 µM, the TGI [13] was 24.4 µM and the TGI [15] was 48.5 µM. The TGI [16] was 26.8 µM, the TGI [17] was 31.6 µM and the TGI [18] was 7.97 µM. For the same compound, the TGI [59] was 36.9 µM, the TGI [19] was 25.7 µM and the TGI [20] was 43.7 µM. The TGI [21] was 33.4 µM, the TGI [22] was 32.6 µM and the TGI [23] was 22.4 µM. It also gave a TGI [24] of 25.7 µM, a TGI [25] of 25.1 µM and a TGI [26] of 29.4 µM. It also gave a TGI [27] of 34.2 µM, a TGI [28] of 32.3 µM and a TGI [29] of 4.69 µM. It also gave a TGI [30] of 34.6 µM, a TGI [31] of 54.1 µM and a TGI [32] of 40.7 µM. It also gave a TGI [33] of 28.3 µM, a TGI [34] of 32.4 µM and a TGI [35] of 23.1 µM. For the same compound, the TGI [36] was 30.3 µM, the TGI [37] was 25.5 µM and the TGI [38] was 29.2 µM. It also gave a TGI [39] of 26 µM, a TGI [40] of 37.3 µM and a TGI [41] of 32.7 µM. It also gave a TGI [42] of 52.6 µM, a TGI [43] of 28.4 µM and a TGI [44] of 37.8 µM. It also gave a TGI [45] of 28.9 µM, a TGI [46] of 36.4 µM and a TGI [48] of 32.8 µM. For the same compound, the TGI [49] was 34.4 µM, the TGI [50] was 30.3 µM and the TGI [51] was 25.3 µM. The TGI [52] was 31.9 µM, the TGI [53] was 31 µM and the TGI [54] was 25.1 µM. The TGI [55] was 42.5 µM, the TGI [56] was 30.2 µM and the TGI [57] was 29.9 µM.
